The structures appear in SMILES notation.

Test [1] deals with T1, BACE-1 (Homo sapiens, UniProt P56817). The test is described as follows: BACE-1 enzyme assay. The class given is biochemical.
Test [2] concerns the target T1, BACE-1. The test is described as follows: BACE-1 cell assay. The following applies: HEK293, read-out: percent inhibition of BACE-1 in cell-based assay.

T1 sequence (P56817 46-501): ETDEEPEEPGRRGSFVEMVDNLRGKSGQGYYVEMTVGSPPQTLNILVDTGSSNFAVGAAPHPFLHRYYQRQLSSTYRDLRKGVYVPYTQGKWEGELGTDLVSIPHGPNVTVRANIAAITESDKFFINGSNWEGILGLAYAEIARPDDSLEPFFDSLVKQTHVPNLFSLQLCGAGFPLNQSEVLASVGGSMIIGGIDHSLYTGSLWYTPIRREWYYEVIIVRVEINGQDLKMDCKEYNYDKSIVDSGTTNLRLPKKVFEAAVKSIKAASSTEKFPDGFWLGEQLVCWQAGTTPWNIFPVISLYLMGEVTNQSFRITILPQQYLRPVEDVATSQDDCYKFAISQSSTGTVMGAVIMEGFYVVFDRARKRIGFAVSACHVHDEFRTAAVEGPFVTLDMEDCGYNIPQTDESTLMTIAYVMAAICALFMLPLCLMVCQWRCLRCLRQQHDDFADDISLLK

As to `CO[C@H](C[C@H](O)[C@@H](N)COc1cccc(OCc2ccccc2)c1)C(=O)N[C@H](C(=O)NCc1ccccc1)C(C)C` [Compound 17, (2R,4S,5S)-5-Amino-6-(3-benzyloxy-phenoxy)-4-hydroxy-2-methoxy-hexanoic acid ((S)-1-benzylcarbamoyl-2-methyl-propyl)-amide], on BACE-1 [1], the IC50 – broadly, the concentration that inhibits the measured activity by half – is more than 10000 nM.

`CO[C@H](C[C@H](O)[C@H](COc1ccc(OCc2ccccc2)cc1)NC(=O)c1cccc(N(C)S(C)(=O)=O)c1)C(=O)N[C@H](C(=O)NCc1ccccc1)C(C)C` [Compound 19, N-[(1S,2S,4R)-4-((S)-1-Benzylcarbamoyl-2-methyl-propylcarbamoyl)-1-(4-benzyloxy-phenoxymethyl)-2-hydroxy-4-methoxy-butyl]-3-(methanesulfonyl-methyl-amino)-benzamide] had an IC50 on BACE-1 [1] of 4600 nM.

Consider `COCCCOc1cc(OC[C@H](N)[C@@H](O)C[C@@H](OC)C(=O)N[C@H](C(=O)NCc2ccc(Cl)cc2)C(C)C)ccc1-c1ccc(F)cc1` [Compound 20, (2R,4S,5S)-5-Amino-6-[4'-fluoro-2-(3-methoxy-propoxy)-biphenyl-4-yloxy]-4-hydroxy-2-methoxy-hexanoic acid [(S)-1-(4-chloro-benzylcarbamoyl)-2-methyl-propyl]-amide], for which the IC50 at BACE-1 [1] came to 2700 nM.

Regarding `CC[C@H](C)[C@H](NC(=O)[C@@H](C[C@H](O)[C@@H](N)COc1ccc(-c2ccc(F)cc2)cc1)OC)C(=O)NCc1ccc(Cl)cc1` [Compound 23, (2R,4S,5S)-5-Amino-6-(4'-fluoro-biphenyl-4-yloxy)-4-hydroxy-2-methoxy-hexanoic acid [(1S,2S)-1-(4-chloro-benzylcarbamoyl)-2-methyl-butyl]-amide], the IC50 at BACE-1 [1] was more than 10000 nM.

`CC[C@H](C)[C@H](NC(=O)[C@@H](C[C@H](O)[C@H](COc1ccc(-c2ccccc2)c(OCCCOC)c1)NC(=O)c1cc(C(=O)N[C@H](C)c2ccccc2)cc(N(C)S(C)(=O)=O)c1)OC)C(=O)NCc1ccc(Cl)cc1` [Compound 25, N-{(1S,2S,4R)-4-[(1S,2S)-1-(4-Chloro-benzylcarbamoyl)-2-methyl-butylcarbamoyl]-2-hydroxy-4-methoxy-1-[2-(3-methoxypropoxy)-biphenyl-4-yloxymethyl]-butyl}-5-(methanesulfonyl-methyl-amino)-N'-((R)-1-phenyl-ethyl)-isophthalamide] showed an IC50 at BACE-1 [1] of 69 nM. Besides, the inhibition (in general, how much of the control response was suppressed) at 1 µM on BACE-1 [2] worked out at 3%.

On BACE-1 [1], `CC[C@H](C)[C@@H](CNc1ccc(Cl)cc1)NC(=O)[C@H](Cc1ccccc1)C[C@H](O)[C@@H](N)COc1ccc(-c2ccc(F)cc2)c(OCCCOC)c1` [Compound 28, (2R,4S,5S)-5-amino-2-benzyl-N-((2S,3S)-1-(4-chlorophenylamino)-3-methylpentan-2-yl)-6-(4'-fluoro-2-(3-methoxypropoxy)biphenyl-4-yloxy)-4-hydroxyhexanamide] came in with an IC50 of 300 nM. On BACE-1 [2], the inhibition at 1 µM came to 14%.

Consider `CC[C@H](C)[C@@H](CNc1ccc(Cl)cc1)NC(=O)[C@@H](C[C@H](O)[C@@H](N)COc1ccc(-c2ccc(F)cc2)c(OCCCOC)c1)C(C)C` [Compound 30, (2S,4S,5S)-5-amino-N-((2S,3S)-1-(4-chlorophenylamino)-3-methylpentan-2-yl)-6-(4'-fluoro-2-(3-methoxypropoxy)bi-phenyl-4-yloxy)-4-hydroxy-2-isopropylhexanamide], for which, at BACE-1 [1], the IC50 stood at 540 nM. The inhibition at 1 µM on BACE-1 [2] was determined as 28%.

For the origin of these results see article PMC3617544 (The Open Medicinal Chemistry Journal, 2013).
